According to patent US9694016B2 (Novartis AG, priority 2013, dated 2017):
Read-outs that look alike come from different tables or passages of the source.

Molecular target: b-Raf (V600E) (Homo sapiens (Human), UniProt P15056, V600E)
Conditions: read-out: b-Raf IC-50, AlphaScreen
[1] = 60 min pre-incubation, reaction 3 hours at room temperature
[2] = 60 min pre-incubation, 3 hours reaction

b-Raf (V600E), sequence (P15056 whole entry V600E): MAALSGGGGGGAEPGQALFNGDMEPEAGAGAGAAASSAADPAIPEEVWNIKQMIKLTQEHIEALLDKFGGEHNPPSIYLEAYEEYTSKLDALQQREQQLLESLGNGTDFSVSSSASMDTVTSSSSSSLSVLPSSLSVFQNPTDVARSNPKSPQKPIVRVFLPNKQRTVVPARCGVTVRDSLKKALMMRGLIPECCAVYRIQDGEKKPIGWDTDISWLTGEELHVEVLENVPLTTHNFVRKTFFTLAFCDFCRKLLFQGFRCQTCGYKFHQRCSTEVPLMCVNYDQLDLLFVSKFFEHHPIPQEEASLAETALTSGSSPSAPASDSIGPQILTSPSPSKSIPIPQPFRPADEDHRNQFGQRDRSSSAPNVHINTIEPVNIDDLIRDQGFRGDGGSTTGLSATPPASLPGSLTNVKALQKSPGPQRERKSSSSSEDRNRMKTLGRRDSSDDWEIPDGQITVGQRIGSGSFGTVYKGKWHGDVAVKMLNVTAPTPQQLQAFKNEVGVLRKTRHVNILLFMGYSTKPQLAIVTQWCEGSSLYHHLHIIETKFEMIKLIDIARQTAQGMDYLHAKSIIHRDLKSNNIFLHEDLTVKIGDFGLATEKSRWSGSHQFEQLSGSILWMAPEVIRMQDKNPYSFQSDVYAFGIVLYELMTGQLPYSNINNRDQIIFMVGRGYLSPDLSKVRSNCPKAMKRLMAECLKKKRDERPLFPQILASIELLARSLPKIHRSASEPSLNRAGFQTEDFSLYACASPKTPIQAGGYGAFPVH

Cc1ncc(NC(=O)c2cc(CN(C)C)cc(C(F)(F)F)c2)cc1-c1cnc(N(C)C)c(N2CCOCC2)c1 [Example 269, N-(6′-(dimethylamino)-2-methyl-5′-morpholino-[3,3′-bipyridin]-5-yl)-3-((dimethylamino)methyl)-5-(trifluoromethyl)benzamide]
IC50 (Table 2, 3 hours reaction): 2.4 nM

Cc1ncc(NC(=O)c2cc(C3CC3)on2)cc1-c1cc(N2CCOCC2)nc(N2CC(O)C2)c1 [Example 1093, 5-cyclopropyl-N-(2′-(3-hydroxyazetidin-1-yl)-2-methyl-6′-morpholino-[3,4′-bipyridin]-5-yl)isoxazole-3-carboxamide]
IC50 [1]: 6.58 nM

COCCOc1nnc(-c2cc(NC(=O)c3ccnc(C(C)(C)C#N)c3)ccc2C)cc1N1CCOCC1 [Example 601, 2-(2-cyanopropan-2-yl)-N-(3-(6-(2-methoxyethoxy)-5-morpholinopyridazin-3-yl)-4-methylphenyl)isonicotinamide]
IC50 [2]: 1.1 nM

Cc1ccc(NC(=O)c2ccnc(C(F)F)c2)cc1-c1nc2c(c(N3CCOCC3)n1)S(=O)(=O)CC2 [Example 856, 2-(difluoromethyl)-N-(4-methyl-3-(4-morpholino-5,5-dioxido-6,7-dihydrothieno[3,2-d]pyrimidin-2-yl)phenyl)isonicotinamide]
IC50 [1]: 5.5 nM

O=C(Nc1c[nH]c(=O)c(-c2ccnc(N3CCOCC3)c2)c1)c1cccc(C(F)F)c1 [Example 1174, 3-(difluoromethyl)-N-(2′-morpholino-2-oxo-1,2-dihydro-[3,4′-bipyridin]-5-yl)benzamide]
IC50 [1]: 25000 nM

CCOc1nnc(-c2cc(NC(=O)c3ccnc(C(F)(F)CC)c3)ccc2C)cc1N1CCOCC1 [Example 560, 2-(1,1-difluoropropyl)-N-(3-(6-ethoxy-5-morpholinopyridazin-3-yl)-4-methylphenyl)isonicotinamide]
IC50 [2]: 1 nM

Cc1ncc(NC(=O)c2ccnc(C(C)(C)C)c2)cc1-c1cc(N2CCOCC2)n(C)c(=O)c1 [Example 507, 2-(tert-butyl)-N-(1′,2-dimethyl-6′-morpholino-2′-oxo-1′,2′-dihydro-[3,4′-bipyridin]-5-yl)isonicotinamide]
IC50 [2]: 20.6 nM

Cc1ncc(NC(=O)c2ccnc(C(C)(F)F)c2)cc1-c1cc(N2CCOCC2)c(S(C)(=O)=O)nn1 [Example 920, 2-(1,1-difluoroethyl)-N-(6-methyl-5-(6-(methylsulfonyl)-5-morpholinopyridazin-3-yl)pyridin-3-yl)isonicotinamide]
IC50 [1]: 8.85 nM

Cc1ccc(C(=O)Nc2cccc(C(F)(F)F)c2)cc1-c1nc2c(c(N3CCOCC3)n1)CNC2 [Example 889, 4-methyl-3-(4-morpholino-6,7-dihydro-5H-pyrrolo[3,4-d]pyrimidin-2-yl)-N-(3-(trifluoromethyl)phenyl)benzamide]
IC50 [1]: 3.3 nM

Cc1ncc(NC(=O)c2cccc(C3(C#N)CC3)c2Cl)cc1-c1cc(N2CCOCC2)c(=O)n(C)c1 [Example 403, 2-chloro-3-(1-cyanocyclopropyl)-N-(1′,2-dimethyl-5′-morpholino-6′-oxo-1′,6′-dihydro-[3,3′-bipyridin]-5-yl)benzamide]
IC50 (Table 2, 3 hours reaction): 62 nM

Cc1ccc(NC(=O)c2ccnc(C(F)(F)F)c2)cc1-c1cc(N2CCNCC2)nc(N2CCOCC2)c1 [Example 1128, N-(4-methyl-3-(2-morpholino-6-(piperazin-1-yl)pyridin-4-yl)phenyl)-2-(trifluoromethyl)isonicotinamide]
IC50 [1]: 2.16 nM

Cc1ncc(NC(=O)c2cncc(C(F)(F)F)c2)cc1-c1cnc(OC(C)C)c(N2CCOCC2)c1 [Example 960, N-(6′-isopropoxy-2-methyl-5′-morpholino-[3,3′-bipyridin]-5-yl)-5-(trifluoromethyl)nicotinamide]
IC50 [1]: 2.66 nM

Cc1ccc(NC(=O)c2cncc(C(F)(F)F)c2)cc1-c1cnc(OC(C)C)c(N2CCOCC2)c1 [Example 951, N-(3-(6-isopropoxy-5-morpholinopyridin-3-yl)-4-methylphenyl)-5-(trifluoromethyl)nicotinamide]
IC50 [1]: 0.31 nM

Cc1ccc(NC(=O)c2cnnc(C(F)(F)F)c2)cc1-c1cc(N2CCOCC2)n(C)c(=O)c1 [Example 495, N-(4-methyl-3-(1-methyl-6-morpholino-2-oxo-1,2-dihydropyridin-4-yl)phenyl)-6-(trifluoromethyl)pyridazine-4-carboxamide]
IC50 [2]: 4.5 nM

CCOc1ncc(-c2cc(NC(=O)c3ccnc(C(C)(C)F)c3)cnc2C)cc1N1CCOCC1 [Example 253, N-(6′-ethoxy-2-methyl-5′-morpholino-[3,3′-bipyridin]-5-yl)-2-(2-fluoropropan-2-yl)isonicotinamide]
IC50 (Table 2, 3 hours reaction): 2.6 nM

Cc1ccc(NC(=O)c2cccc(OC(C)C)c2)cc1-c1cc(N2CCOCC2)c(=O)n(C)c1 [Example 345, 3-isopropoxy-N-(4-methyl-3-(1-methyl-5-morpholino-6-oxo-1,6-dihydropyridin-3-yl)phenyl)benzamide]
IC50 (Table 2, 3 hours reaction): 1.6 nM

Cc1ncc(NC(=O)c2cccc(C(F)(F)F)c2)cc1-c1cnc(O[C@@H](C)CO)c(N2CCOCC2)c1 [Example 985, (S)—N-(6′-((1-hydroxypropan-2-yl)oxy)-2-methyl-5′-morpholino-[3,3′-bipyridin]-5-yl)-3-(trifluoromethyl)benzamide]
IC50 [1]: 2.01 nM

Cc1ccc(NC(=O)c2ccnc(C(C)(C)F)c2)cc1-c1cnc(OC(C)C)c(N2CCOCC2)c1 [Example 946, 2-(2-fluoropropan-2-yl)-N-(3-(6-isopropoxy-5-morpholinopyridin-3-yl)-4-methylphenyl)isonicotinamide]
IC50 [1]: 2.36 nM

CCOc1ncc(-c2cc(NC(=O)c3cnnc(C(F)(F)F)c3)cnc2C)cc1N1CCOC[C@@H]1C [Example 286, (S)—N-(6′-ethoxy-2-methyl-5′-(3-methylmorpholino)-[3,3′-bipyridin]-5-yl)-6-(trifluoromethyl)pyridazine-4-carboxamide]
IC50 (Table 2, 3 hours reaction): 200 nM

Cc1ccc(NC(=O)c2ccnc(C(C)(C)O)c2)cc1-c1cc(N2CCOCC2)c(OC2CCOCC2)nn1 [Example 581, 2-(2-hydroxypropan-2-yl)-N-(4-methyl-3-(5-morpholino-6-((tetrahydro-2H-pyran-4-yl)oxy)pyridazin-3-yl)phenyl)isonicotinamide]
IC50 [2]: 2.2 nM

COc1ncc(-c2cc(NC(=O)c3cnnc(C(F)(F)F)c3)cnc2Cl)cc1N1CCOCC1 [Example 263, N-(2-chloro-6′-methoxy-5′-morpholino-[3,3′-bipyridin]-5-yl)-6-(trifluoromethyl)pyridazine-4-carboxamide]
IC50 (Table 2, 3 hours reaction): 9 nM

CCN(C)c1cc(C(=O)Nc2ccc(C)c(-c3cc(N4CCOCC4)c(=O)n(C)c3)c2)ccn1 [Example 453, 2-(ethyl(methyl)amino)-N-(4-methyl-3-(1-methyl-5-morpholino-6-oxo-1,6-dihydropyridin-3-yl)phenyl)isonicotinamide]
IC50 [2]: 4.3 nM

Cc1ccc(NC(=O)c2ccnc(C(C)(C)F)c2)cc1-c1cc(C2CCOCC2)c(=O)n(C)n1 [Example 676, 2-(2-fluoropropan-2-yl)-N-(4-methyl-3-(1-methyl-6-oxo-5-(tetrahydro-2H-pyran-4-yl)-1,6-dihydropyridazin-3-yl)phenyl)isonicotinamide]
IC50 [2]: 2.4 nM

Cc1nn(C(C)C)cc1C(=O)Nc1cnc(C)c(-c2cc(N3CCOCC3)c(=O)n(C)c2)c1 [Example 375, N-(1′,2-dimethyl-5′-morpholino-6′-oxo-1′,6′-dihydro-[3,3′-bipyridin]-5-yl)-1-isopropyl-3-methyl-1H-pyrazole-4-carboxamide]
IC50 (Table 2, 3 hours reaction): 200 nM
